{"source": "paper PMC10683025", "about": "“Discovery of a Hydroxylamine-Based Brain-Penetrant EGFR Inhibitor for Metastatic Non-Small-Cell Lung Cancer” (Journal of Medicinal Chemistry, 2023)", "key": {"EGFRwt": {"molecular_target": "T1, EGFRwt (Homo sapiens, UniProt P00533)", "T1 construct": "purchased Eurofins DiscoverX (contract assay)", "T1 sequence (P00533 25-1210)": "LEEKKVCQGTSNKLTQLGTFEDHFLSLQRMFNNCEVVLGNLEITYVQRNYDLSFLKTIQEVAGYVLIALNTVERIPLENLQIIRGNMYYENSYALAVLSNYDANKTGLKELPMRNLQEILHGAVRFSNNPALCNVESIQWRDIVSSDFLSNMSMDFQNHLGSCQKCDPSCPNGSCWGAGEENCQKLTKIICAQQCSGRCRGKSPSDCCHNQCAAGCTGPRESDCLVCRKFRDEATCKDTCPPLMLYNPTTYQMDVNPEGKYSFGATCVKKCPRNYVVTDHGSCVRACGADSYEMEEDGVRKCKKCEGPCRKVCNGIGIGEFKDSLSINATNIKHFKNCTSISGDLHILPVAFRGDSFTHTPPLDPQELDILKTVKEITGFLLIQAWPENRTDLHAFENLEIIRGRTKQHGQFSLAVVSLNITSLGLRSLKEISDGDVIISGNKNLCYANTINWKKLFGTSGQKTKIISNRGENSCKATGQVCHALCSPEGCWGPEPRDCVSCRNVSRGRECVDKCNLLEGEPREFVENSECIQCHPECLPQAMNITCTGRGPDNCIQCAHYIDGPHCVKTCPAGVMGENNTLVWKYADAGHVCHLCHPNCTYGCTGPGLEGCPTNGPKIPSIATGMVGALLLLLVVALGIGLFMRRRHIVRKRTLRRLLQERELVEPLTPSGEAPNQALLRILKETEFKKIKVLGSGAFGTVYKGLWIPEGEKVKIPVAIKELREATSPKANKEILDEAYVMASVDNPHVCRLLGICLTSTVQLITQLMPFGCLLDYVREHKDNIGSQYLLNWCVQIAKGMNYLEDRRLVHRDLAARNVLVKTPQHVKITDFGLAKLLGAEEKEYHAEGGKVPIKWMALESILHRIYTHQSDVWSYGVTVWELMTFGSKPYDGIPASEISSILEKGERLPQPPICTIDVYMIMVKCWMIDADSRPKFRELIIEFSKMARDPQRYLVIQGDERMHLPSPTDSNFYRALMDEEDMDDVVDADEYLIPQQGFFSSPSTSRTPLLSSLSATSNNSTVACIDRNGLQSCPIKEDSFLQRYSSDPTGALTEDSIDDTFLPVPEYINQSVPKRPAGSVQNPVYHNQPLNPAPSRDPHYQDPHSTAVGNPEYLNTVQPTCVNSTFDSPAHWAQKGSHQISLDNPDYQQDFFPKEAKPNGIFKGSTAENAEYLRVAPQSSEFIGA", "assay": "KINOMEScan KdELECT Kd determination", "format": "binding", "conditions": "wt; read-out: EGFR Kd", "experimental": "(§3) In vitro kinase activity (inhibitor binding constants (Kd) and biochemical inhibition (IC50’s)) were assessed by Eurofins DiscoverX (Kd determinations) and Eurofins Cerep (biochemical IC50 determinations)."}, "EGFR del E746_A750": {"molecular_target": "T2, EGFR del E746_A750 (Homo sapiens, UniProt P00533, DEL746-750)", "T2 construct": "purchased Eurofins DiscoverX (contract assay)", "T2 sequence (P00533 with tags, fused parts or gaps DEL746-750)": "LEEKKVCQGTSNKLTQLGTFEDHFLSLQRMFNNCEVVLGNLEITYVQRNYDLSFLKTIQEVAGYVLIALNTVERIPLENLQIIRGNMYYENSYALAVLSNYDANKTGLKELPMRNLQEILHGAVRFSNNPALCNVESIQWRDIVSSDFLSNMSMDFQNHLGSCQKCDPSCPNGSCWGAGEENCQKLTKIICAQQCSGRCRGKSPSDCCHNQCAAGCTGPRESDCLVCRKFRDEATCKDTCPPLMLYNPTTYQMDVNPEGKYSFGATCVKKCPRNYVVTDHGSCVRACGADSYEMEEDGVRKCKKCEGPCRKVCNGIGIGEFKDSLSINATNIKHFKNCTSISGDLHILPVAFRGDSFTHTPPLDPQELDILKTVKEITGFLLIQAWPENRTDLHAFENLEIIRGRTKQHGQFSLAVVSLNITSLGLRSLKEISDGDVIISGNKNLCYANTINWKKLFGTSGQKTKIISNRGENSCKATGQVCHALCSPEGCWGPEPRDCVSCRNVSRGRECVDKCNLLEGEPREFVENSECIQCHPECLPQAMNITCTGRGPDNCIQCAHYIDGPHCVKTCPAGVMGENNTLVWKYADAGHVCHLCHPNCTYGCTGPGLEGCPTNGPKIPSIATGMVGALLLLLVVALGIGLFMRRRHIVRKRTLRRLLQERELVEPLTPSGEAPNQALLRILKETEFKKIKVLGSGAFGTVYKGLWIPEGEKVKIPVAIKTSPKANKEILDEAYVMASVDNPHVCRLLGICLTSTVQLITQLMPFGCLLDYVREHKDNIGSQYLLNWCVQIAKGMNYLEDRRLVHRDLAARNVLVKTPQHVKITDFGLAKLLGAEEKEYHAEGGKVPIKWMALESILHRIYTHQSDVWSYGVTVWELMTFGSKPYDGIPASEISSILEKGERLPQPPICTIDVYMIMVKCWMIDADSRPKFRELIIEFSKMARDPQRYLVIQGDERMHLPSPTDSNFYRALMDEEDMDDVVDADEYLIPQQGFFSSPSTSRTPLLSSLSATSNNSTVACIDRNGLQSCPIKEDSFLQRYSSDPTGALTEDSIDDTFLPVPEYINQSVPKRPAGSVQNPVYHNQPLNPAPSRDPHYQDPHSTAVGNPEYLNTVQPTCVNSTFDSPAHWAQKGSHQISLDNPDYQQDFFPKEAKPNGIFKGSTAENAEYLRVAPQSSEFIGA", "assay": "KINOMEScan KdELECT Kd determination", "format": "binding", "experimental": "as §3"}, "[1]": {"tested_on": "HCC827 (EGFR mutation = exon19del)", "assay": "CellTiter-Glo cell viability assay", "format": "cell-based, human", "conditions": "Homo sapiens, HCC827; 72 h, unadjusted for FBS", "experimental": "The NCI-H3255 cell line was obtained from CoBioer. […] NCI-H3255 cells were cultured in BEGM (Lonza) with 10% FBS. […] All cells were cultured in a humidified incubator with 5% CO2 at 37 °C.\nViability assays using A431, HCC827, NCI-H1975, NCI-H3255, Ba/F3 EGFR-del E746_A750/C797S, Ba/F3 EGFR-L858R/C797S, AU565, SK-BR-3, and ZR-75-30 cells were performed at Crown BioScience."}, "Solubility assay": {"assay": "Solubility assay", "format": "physicochemical", "conditions": "buffer, pH 7.4, aqueous buffer; read-out: Aq. Sol.", "procedure": "Solubility was determined by Pharmaron, Inc. and each compound was assessed in duplicate (n = 2) by adding 15 μL of compound stock solution (10 mM in DMSO) into a 96-well plate along with 485 μL of buffer followed by shaking at 25 °C, 1100 rpm for 2 h. Wells were filtered, and samples (5 μL) were taken followed by dilution with an equal volume of DMSO (5 μL) and 490 μL of aqueous solution. Samples were analyzed by LC-MS/MS."}, "[2]": {"assay": "Metabolic stability in liver microsomes", "format": "in vitro ADME, human", "conditions": "for Remaining Percentage: human LM", "experimental": "(§4) Microsome stability was assessed in duplicate (n = 2) in the presence and absence of nicotinamide adenine dinucleotide phosphate (NADPH) with liver microsomes (0.5 mg/mL) from human (BD Gentest) and Sprague-Dawley rats (BD Gentest). Compounds were incubated in liver microsomes at 1 μM and samples (30 μL) were taken at 0.5, 15, 30, 45, and 60 min time points for analysis by LC-MS/MS. Hepatocyte stability was assessed in duplicate (n = 2) at a working cell density of 0.5 × 10^6 cells/mL with hepatocytes from human (BiolVT), Sprague-Dawley rat (BiolVT), cynomolgus monkey (RILD) or beagle dog (BiolVT). […] The in vitro half-life and intrinsic clearances were determined as previously described.[76]\n(§5) In vitro half-life (in vitro t1/2) was determined from the slope value in [drawing 1] where k was determined by linear regression of the natural logarithm of the remaining percentage of the parent drug vs the incubation time curve."}, "[3]": {"assay": "Metabolic stability in hepatocytes", "format": "in vitro ADME, human", "conditions": "for Remaining Percentages: human hepatocytes", "experimental": "as §4, §5"}, "[4]": {"assay": "Metabolic stability in hepatocytes", "format": "in vitro ADME, Sprague-Dawley rat", "conditions": "for Remaining Percentages: rat hepatocytes", "experimental": "as §4, §5"}, "Plasma stability [5]": {"assay": "Plasma stability", "format": "in vitro ADME, human", "conditions": "human plasma", "outline": "(§1)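 Compound at 5 μM incubated in human and Sprague-Dawley rat plasma, duplicates; samples at 0, 15, 30, 60 and 120 min analysed by LC-MS/MS. Percent remaining at each time from compound/control peak area ratio relative to the 0 min ratio.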"}, "Plasma stability [6]": {"assay": "Plasma stability", "format": "in vitro ADME, Sprague-Dawley rat", "conditions": "rat plasma", "outline": "as §1"}, "Caco-2 permeability": {"assay": "Caco-2 permeability", "format": "in vitro ADME", "conditions": "human; for recovery at 2 h, 5 μM: Caco-2, Caco-2", "experimental": "A 96-well HTS Transwell plate (Corning) was used for Caco-2 and MDCKII-MDR1 cell seeding. […] Plates were incubated at 37 °C for 2 h, and samples (50 μL) were taken at the beginning and end of the incubation in both the donor and acceptor wells with the assay run in duplicate (n = 2). Samples were analyzed by LC-MS/MS.\nThe efflux ratio was determined by using the following equation: [drawing 4] where Papp (B–A) indicates the apparent permeability in the basolateral to apical direction and Papp (A–B) indicates the apparent permeability in the apical to basolateral direction."}, "MDCKII-MDR1 permeability": {"assay": "MDCKII-MDR1 permeability", "format": "in vitro ADME, canine", "conditions": "dog, MDCK-MDR1, MDCKII-MDR1"}, "MDR1": {"tested_on": "MDR1", "assay": "MDCKII-MDR1 permeability", "format": "in vitro ADME, canine", "conditions": "dog, MDCK-MDR1"}, "[7]": {"assay": "Plasma protein binding by equilibrium dialysis", "format": "in vitro ADME", "procedure": "(§2) Plasma protein binding and brain tissue binding were determined by Pharmaron, Inc. using the equilibrium dialysis method. […] Following incubation, the samples were analyzed by LC-MS/MS and the concentrations of the compounds were determined in the buffer and plasma solution chambers."}, "[8]": {"assay": "Brain tissue binding by equilibrium dialysis", "format": "in vitro ADME", "conditions": "rat", "procedure": "as §2"}, "hERG": {"molecular_target": "T3, hERG (Homo sapiens, UniProt Q12809)", "T3 construct": "host or cells: HEK293", "assay": "hERG manual patch clamp in HEK293", "format": "cell-based", "conditions": "human, HEK293 cells stably transfected with hERG; HEK 293 (+hERG), manual patch clamp"}, "EGFRL858R [9]": {"molecular_target": "T4, EGFRL858R (Homo sapiens, UniProt P00533, L858R)", "T4 sequence (P00533 25-1210 L858R)": "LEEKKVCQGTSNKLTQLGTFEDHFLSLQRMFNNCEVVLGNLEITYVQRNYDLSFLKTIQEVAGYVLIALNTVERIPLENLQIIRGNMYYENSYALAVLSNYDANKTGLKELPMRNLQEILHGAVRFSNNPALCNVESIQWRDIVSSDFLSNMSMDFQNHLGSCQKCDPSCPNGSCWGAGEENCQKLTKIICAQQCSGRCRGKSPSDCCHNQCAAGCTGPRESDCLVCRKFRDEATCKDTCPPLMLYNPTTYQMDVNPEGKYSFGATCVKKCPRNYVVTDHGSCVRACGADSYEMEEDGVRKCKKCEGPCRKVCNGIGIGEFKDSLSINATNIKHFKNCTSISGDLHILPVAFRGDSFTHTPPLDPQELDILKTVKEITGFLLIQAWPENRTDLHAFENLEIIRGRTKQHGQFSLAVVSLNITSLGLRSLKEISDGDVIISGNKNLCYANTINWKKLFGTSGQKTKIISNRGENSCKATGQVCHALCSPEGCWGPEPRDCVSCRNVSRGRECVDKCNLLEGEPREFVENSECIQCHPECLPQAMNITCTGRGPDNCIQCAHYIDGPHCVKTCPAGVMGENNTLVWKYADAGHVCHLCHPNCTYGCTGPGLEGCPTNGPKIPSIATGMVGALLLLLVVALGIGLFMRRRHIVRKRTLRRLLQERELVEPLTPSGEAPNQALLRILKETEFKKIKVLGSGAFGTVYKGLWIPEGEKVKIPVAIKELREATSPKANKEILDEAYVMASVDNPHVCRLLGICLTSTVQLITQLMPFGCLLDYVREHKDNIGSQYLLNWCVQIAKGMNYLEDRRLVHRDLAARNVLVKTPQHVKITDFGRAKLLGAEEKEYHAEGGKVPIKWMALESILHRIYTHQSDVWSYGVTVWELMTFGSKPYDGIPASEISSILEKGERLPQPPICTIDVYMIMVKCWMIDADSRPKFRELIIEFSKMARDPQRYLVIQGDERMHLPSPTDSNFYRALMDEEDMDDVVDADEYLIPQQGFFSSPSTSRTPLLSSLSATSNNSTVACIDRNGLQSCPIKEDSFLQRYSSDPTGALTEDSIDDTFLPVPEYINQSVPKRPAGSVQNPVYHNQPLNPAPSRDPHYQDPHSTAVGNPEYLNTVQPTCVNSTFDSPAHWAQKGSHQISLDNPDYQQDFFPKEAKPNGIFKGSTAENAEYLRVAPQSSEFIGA", "assay": "KINOMEScan KdELECT Kd determination", "format": "binding", "parameters": "purchased Eurofins DiscoverX (contract assay)", "conditions": "L858R", "experimental": "as §3"}, "EGFRL858R [10]": {"molecular_target": "T4, EGFRL858R", "assay": "KinaseProfiler enzymatic radiometric assay", "format": "biochemical", "parameters": "purchased Eurofins Cerep (KinaseProfiler, contract assay)", "conditions": "ATP 10 μM, read-out: EGFR IC50", "experimental": "as §3"}, "[11]": {"conditions": "Sprague-Dawley, rat, rat plasma"}}, "note": "Where two headings read alike, the source gives them in different places.", "data": [{"smiles": "COc1cc2ncnc(Nc3cccc(Cl)c3F)c2cc1OCCON1CCOCC1", "note": "[Compound 7, N-(3-Chloro-2-fluorophenyl)-7-methoxy-6-(2-(morpholinooxy)ethoxy)quinazolin-4-amine]", "values": [{"measurement": "Kd", "setting": "EGFRwt", "value": "< 0.2", "unit": "nM"}, {"measurement": "Kd", "setting": "EGFR del E746_A750", "value": "< 0.2", "unit": "nM"}, {"measurement": "IC50", "setting": "[1]", "value": 0.31, "unit": "nM"}, {"measurement": "solubility kinetic at 2 h", "setting": "Solubility assay", "value": 36, "unit": "µM"}, {"measurement": "Remaining Percentage", "setting": "[2]; +Cofactors, 15 min", "value": 43.79, "unit": "%"}, {"measurement": "Remaining Percentage", "setting": "[2]; +Cofactors, 30 min", "value": 21.93, "unit": "%"}, {"measurement": "Remaining Percentage", "setting": "[2]; +Cofactors, 45 min", "value": 10.84, "unit": "%"}, {"measurement": "Remaining Percentage", "setting": "[2]; +Cofactors, 60 min", "value": 7.20, "unit": "%"}, {"measurement": "Remaining Percentage", "setting": "[2]; -Cofactors, 60 min", "value": 87.34, "unit": "%"}, {"measurement": "half-life at 1 h, 1 µM", "setting": "[2]; human, liver microsomes, read-out: LM t1/2", "value": 14, "unit": "min"}, {"measurement": "microsomal CLint at 1 h, 1 µM", "setting": "[2]; human, liver microsomes, read-out: LMClint", "value": 99, "unit": "µL/min/mg"}, {"measurement": "Remaining Percentages", "setting": "[3]; 15 min", "value": 96.13, "unit": "%"}, {"measurement": "Remaining Percentages", "setting": "[3]; 30 min", "value": 87.34, "unit": "%"}, {"measurement": "Remaining Percentages", "setting": "[3]; 60 min", "value": 76.27, "unit": "%"}, {"measurement": "Remaining Percentages", "setting": "[3]; 90 min", "value": 61.58, "unit": "%"}, {"measurement": "Remaining Percentages", "setting": "[3]; 120 min", "value": 45.68, "unit": "%"}, {"measurement": "hepatocyte CLint at 2 h, 1 µM", "setting": "[3]; human, hepatocytes", "value": 13, "unit": "µL/min/1e6 cells"}, {"measurement": "half-life at 2 h, 1 µM", "setting": "[3]; human, hepatocytes, read-out: HEP t1/2", "value": 108, "unit": "min"}, {"measurement": "hepatocyte CLint at 2 h, 1 µM", "setting": "[4]; Sprague-Dawley, rat, hepatocytes", "value": 126, "unit": "µL/min/1e6 cells"}, {"measurement": "half-life at 2 h, 1 µM", "setting": "[4]; Sprague-Dawley, rat, hepatocytes, read-out: HEP t1/2", "value": 11, "unit": "min"}, {"measurement": "Remaining Percentages", "setting": "[4]; 15 min", "value": 38.18, "unit": "%"}, {"measurement": "Remaining Percentages", "setting": "[4]; 30 min", "value": 15.61, "unit": "%"}, {"measurement": "Remaining Percentages", "setting": "[4]; 60 min", "value": 2.48, "unit": "%"}, {"measurement": "Remaining Percentages", "setting": "[4]; 90 min", "value": 0.92, "unit": "%"}, {"measurement": "Remaining Percentages", "setting": "[4]; 120 min", "value": 0.74, "unit": "%"}, {"measurement": "Remaining Percentages", "setting": "Plasma stability [5]; 15 min", "value": 100.68, "unit": "%"}, {"measurement": "Remaining Percentages", "setting": "Plasma stability [5]; 30 min", "value": 93.61, "unit": "%"}, {"measurement": "Remaining Percentages", "setting": "Plasma stability [5]; 60 min", "value": 100.91, "unit": "%"}, {"measurement": "Remaining Percentages", "setting": "Plasma stability [5]; 120 min", "value": 97.91, "unit": "%"}, {"measurement": "t1/2", "setting": "Plasma stability [5]; ∞ = no degradation", "value": "∞"}, {"measurement": "Remaining Percentages", "setting": "Plasma stability [6]; 15 min", "value": 91.34, "unit": "%"}, {"measurement": "Remaining Percentages", "setting": "Plasma stability [6]; 30 min", "value": 93.84, "unit": "%"}, {"measurement": "Remaining Percentages", "setting": "Plasma stability [6]; 60 min", "value": 93.29, "unit": "%"}, {"measurement": "Remaining Percentages", "setting": "Plasma stability [6]; 120 min", "value": 95.67, "unit": "%"}, {"measurement": "t1/2", "setting": "Plasma stability [6]; ∞ = no degradation", "value": "∞"}, {"measurement": "efflux ratio at 2 h, 5 µM", "setting": "Caco-2 permeability; Caco-2", "value": 1}, {"measurement": "recovery at 2 h, 5 μM", "setting": "Caco-2 permeability; read-out: Recovery% (AP-BL)", "value": 72.9, "unit": "%"}, {"measurement": "recovery at 2 h, 5 μM", "setting": "Caco-2 permeability; read-out: Recovery% (BL-AP)", "value": 72.2, "unit": "%"}, {"measurement": "Papp A→B at 2 h, 5 µM", "setting": "Caco-2 permeability; Caco-2, 5 μM, 2 h", "value": 10.9, "unit": "×10⁻⁶ cm/s"}, {"measurement": "Papp A→B at 2 h, 5 μM", "setting": "Caco-2 permeability; Caco-2, 5 μM, 2 h", "value": 10.9, "unit": "×10⁻⁶ cm/s"}, {"measurement": "Papp B→A at 2 h, 5 µM", "setting": "Caco-2 permeability; Caco-2, 5 μM, 2 h", "value": 10.8, "unit": "×10⁻⁶ cm/s"}, {"measurement": "Papp B→A at 2 h, 5 μM", "setting": "Caco-2 permeability; Caco-2, 5 μM, 2 h", "value": 10.8, "unit": "×10⁻⁶ cm/s"}, {"measurement": "recovery at 2 h, 1 μM", "setting": "MDCKII-MDR1 permeability; read-out: Recovery% (AP-BL)", "value": 73.5, "unit": "%"}, {"measurement": "recovery at 2 h, 1 μM", "setting": "MDCKII-MDR1 permeability; read-out: Recovery% (BL-AP)", "value": 76.4, "unit": "%"}, {"measurement": "efflux ratio at 2 h, 1 µM", "setting": "MDR1", "value": 1.1}, {"measurement": "efflux ratio at 2 h, 1 μM", "setting": "MDR1", "value": 1.06}, {"measurement": "Papp A→B at 2 h, 1 µM", "setting": "MDR1; 1 μM, 2 h", "value": 12.6, "unit": "×10⁻⁶ cm/s"}, {"measurement": "Papp A→B at 2 h, 1 μM", "setting": "MDR1; 1 μM, 2 h", "value": 12.6, "unit": "×10⁻⁶ cm/s"}, {"measurement": "Papp B→A at 2 h, 1 µM", "setting": "MDR1; 1 μM, 2 h", "value": 13.3, "unit": "×10⁻⁶ cm/s"}, {"measurement": "Papp B→A at 2 h, 1 μM", "setting": "MDR1; 1 μM, 2 h", "value": 13.3, "unit": "×10⁻⁶ cm/s"}, {"measurement": "fraction unbound at 6 h, 5 μM", "setting": "[7]; Sprague-Dawley, rat, plasma, 5 μM, read-out: fu,plasma% / %Unbound", "value": 0.105}, {"measurement": "recovery at 6 h, 5 μM", "setting": "[7]; [11]", "value": 110, "unit": "%"}, {"measurement": "remaining at 6 h, 5 μM", "setting": "[7]; [11]", "value": 101, "unit": "%"}, {"measurement": "fraction unbound at 6 h, 5 μM", "setting": "[7]; Sprague-Dawley, rat, rat plasma, read-out: %Bound (converted)", "value": 0.105}, {"measurement": "recovery at 6 h, 5 μM", "setting": "[7]; human, human plasma", "value": 98.9, "unit": "%"}, {"measurement": "remaining at 6 h, 5 μM", "setting": "[7]; human, human plasma", "value": 99.4, "unit": "%"}, {"measurement": "fraction unbound at 6 h, 5 μM", "setting": "[7]; human, human plasma, read-out: fu,plasma% / %Unbound (converted)", "value": 0.0412}, {"measurement": "fraction unbound at 6 h, 5 μM", "setting": "[7]; plasma, human, 5 μM, read-out: fu,plasma% / %Unbound (converted)", "value": 0.0412}, {"measurement": "recovery at 6 h, 5 μM", "setting": "[8]; Sprague-Dawley (SD), rat brain homogenate", "value": 94.7, "unit": "%"}, {"measurement": "fraction unbound at 6 h, 5 μM", "setting": "[8]; Sprague-Dawley, brain homogenate, read-out: fu,brain% / %Unboundbrain", "value": 0.0478}, {"measurement": "remaining at 6 h, 5 μM", "setting": "[8]; Sprague-Dawley, rat brain homogenate", "value": 98.3, "unit": "%"}, {"measurement": "fraction unbound at 6 h, 5 μM", "setting": "[8]; Sprague-Dawley, rat brain homogenate, read-out: %Boundbrain (converted)", "value": 0.0478}, {"measurement": "IC50", "setting": "hERG", "value": "8480 ± 3500", "unit": "nM"}, {"measurement": "Kd", "setting": "EGFRL858R [9]", "value": "< 0.2", "unit": "nM"}, {"measurement": "IC50", "setting": "EGFRL858R [10]", "value": 1, "unit": "nM"}]}]}
